Results as given in ChEMBL document CHEMBL3271943, “P-Aminobenzoic acid derivatives. Mode of action and structure-activity relationships in a cell-free system (Escherichia coli)” (J Med Chem, 1977).
Active and inactive are the calls of the source. No cut-off for these calls is given here.

How the values were obtained:
Albumin = Albumin (Homo sapiens, UniProt P02768); assay: Binding affinity to human serum albumin at 100 umol/l by equilibrium dialysis technique; format: ADME; conditions: isolated protein, 100 µM
Escherichia coli [1] = assay: microbe, parasite or virus in culture; conditions: 24 h, read-out: ID50
Description: Antimicrobial activity against Escherichia coli assessed as growth inhibition after 24 hrs by turbidimetric analysis

physchem [2] = assay: physchem
Description: Dissociation constant, pKa of the compound by spectrophotometric analysis

Enterococcus faecalis [3] = assay: Induction of Streptococcus faecalis growth; format: functional, organism-based
[4] = octanol/water
Description: Lipophilic-hydrophilic balance, Rm of the compound by TLC analysis

physchem [5] = conditions: aqueous solution
Description: Hydrolytic dissociation constant, pKa of the compound in aqueous solution at 50 degC

[6] = buffer
Description: Solubility of the compound in water

Escherichia coli [7] = assay: Reversal of sulfabenzene-mediated growth inhibition of Escherichia coli at 4 to 400 umol/l; format: functional, organism-based
Escherichia coli [8] = assay: Reversal of sulfapyridine-mediated growth inhibition of Escherichia coli at 4 to 400 umol/l; format: functional, organism-based
Escherichia coli [9] = assay: Inhibition of Escherichia coli dihydropteroic acid synthesizing system-mediated folate production at 50 to 250 umol/l
Enterococcus faecalis [10] = assay: Growth inhibition of Streptococcus faecalis; format: functional, organism-based

Chain of Albumin (P02768 whole entry): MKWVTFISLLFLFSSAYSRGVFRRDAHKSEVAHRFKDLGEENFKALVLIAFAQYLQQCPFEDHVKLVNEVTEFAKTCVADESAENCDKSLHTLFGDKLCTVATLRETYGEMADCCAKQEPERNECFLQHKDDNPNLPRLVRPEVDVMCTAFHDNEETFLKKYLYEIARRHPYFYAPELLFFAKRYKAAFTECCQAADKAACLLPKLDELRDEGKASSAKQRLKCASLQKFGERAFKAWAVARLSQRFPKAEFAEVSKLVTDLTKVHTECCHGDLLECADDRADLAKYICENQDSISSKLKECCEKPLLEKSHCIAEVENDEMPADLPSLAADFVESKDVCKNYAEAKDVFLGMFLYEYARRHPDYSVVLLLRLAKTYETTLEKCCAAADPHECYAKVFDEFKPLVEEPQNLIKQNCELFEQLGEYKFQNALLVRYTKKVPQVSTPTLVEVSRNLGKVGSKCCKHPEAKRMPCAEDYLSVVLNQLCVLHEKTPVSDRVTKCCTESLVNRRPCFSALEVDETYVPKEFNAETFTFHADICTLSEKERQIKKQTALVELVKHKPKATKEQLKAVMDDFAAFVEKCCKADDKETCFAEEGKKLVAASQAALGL

| Structure (SMILES) | log(PB) (Albumin) | IC50 (Escherichia coli [1]) [µM] | pKa (physchem [2]) | Rm [4] | further results |
| --- | --- | --- | --- | --- | --- |
| Nc1nc(=O)c2nc(CNc3ccc(C(=O)N[C@@H](CCC(=O)O)C(=O)O)cc3)cnc2[nH]1 | – | – | – | – | Activity (Enterococcus faecalis [3]): Active |
| Nc1nc(O)c2nc(CNc3ccc(C(=O)O)cc3)cnc2n1 | – | – | – | – | Activity (Enterococcus faecalis [3]): Active |
| Nc1ccc(C(=O)O)c([N+](=O)[O-])c1 | 1.33 | 100 | 2.78 | 2.3 | pKa (physchem [5]): 3.22 |
| CCOc1cc(N)ccc1C(=O)O | 1.56 | 130 | 5.09 | 1.31 | solubility [6]: soluble |
| Nc1nc2c(c(=O)[nH]1)N=C(CNc1ccc(C(=O)O)cc1)CN2 | – | – | – | – | Activity (Escherichia coli [7]): Active; Activity (Escherichia coli [8]): Active |
| Nc1nc(O)c2c(n1)NCC(CNc1ccc(C(=O)O)c(Cl)c1)=N2 | – | – | – | – | Activity (Escherichia coli [7]): Active; Activity (Escherichia coli [8]): Active |
| CCCCCCCOc1cc(N)ccc1C(=O)O | – | 90 | 5.3 | 3.77 | solubility [6]: soluble |
| CC(C)CCOc1cc(N)ccc1C(=O)O | – | 125 | 5.17 | 2.7 | solubility [6]: soluble |
| Nc1nc(O)c2c(n1)NCC(CNc1ccc(C(=O)O)cc1F)=N2 | – | – | – | – | Activity (Escherichia coli [7]): Active; Activity (Escherichia coli [8]): Active |
| CCCCCOc1cc(N)ccc1C(=O)O | 1.76 | 135 | 5.1 | 2.85 | solubility [6]: soluble |
| CCCCCCCCOc1cc(N)ccc1C(=O)O | – | 25 | 5.4 | 4.25 | solubility [6]: soluble |
| C=CCOc1cc(N)ccc1C(=O)O | 1.63 | 125 | 5.01 | 1.68 | solubility [6]: soluble |
| Nc1ccc(C(=O)O)c(C(=O)O)c1 | 0.45 | 120 | – | – | – |
| Nc1nc(=O)c2nc(CNc3ccc(C(=O)O)c(Cl)c3)cnc2[nH]1 | – | – | – | – | growth inhibition (GI) (Enterococcus faecalis [10]): inactive; Activity (Enterococcus faecalis [3]): inactive |
| CCCOc1cc(N)ccc1C(=O)O | 1.69 | 140 | 4.96 | 1.75 | solubility [6]: soluble |
| Nc1nc(=O)c2nc(CNc3ccc(C(=O)O)c(F)c3)cnc2[nH]1 | – | – | – | – | Activity (Enterococcus faecalis [3]): Active |
| CCCCOc1cc(N)ccc1C(=O)O | 1.69 | 125 | 5.25 | 2.4 | solubility [6]: soluble |

Now from value to compound, other results behind:

| log(PB) (Albumin) | IC50 (Escherichia coli [1]) [µM] | pKa (physchem [2]) | Rm [4] | Structure (SMILES) | further results |
| --- | --- | --- | --- | --- | --- |
| 0.95 | 40 | 4.84 | – | Cl.Nc1ccc(C(=O)O)cc1N | – |
| 1.37 | 120 | 4.62 | 1.6 | Cc1cc(C(=O)O)ccc1N | – |
| 1.27 | 125 | 4.13 | 1.62 | Nc1ccc(C(=O)O)c(F)c1 | – |
| 1.81 | 100 | 4.35 | 2.38 | Nc1ccc(C(=O)O)cc1Cl | – |
| 1.16 | 30 | 4.83 | 1.73 | Cc1cc(N)ccc1C(=O)O | – |
| 1.92 | 110 | 4.34 | 2.95 | Nc1ccc(C(=O)O)cc1I | – |
| 1.26 | 100 | 5.04 | – | COc1cc(N)ccc1C(=O)O | pKa (physchem [5]): 5.1 |
| 1.27 | 85 | 4.59 | – | Nc1ccc(C(=O)O)cc1O | – |
| 1.36 | 45 | 3.88 | 2.17 | Nc1ccc(C(=O)O)c(Cl)c1 | pKa (physchem [5]): 3.93; inhibition (Escherichia coli [9]): inactive |
| 1.89 | 130 | 3.96 | 3.11 | Nc1ccc(C(=O)O)cc1[N+](=O)[O-] | solubility [6]: soluble |
| 1.82 | 120 | – | – | Nc1ccc(C(=O)O)cc1C(=O)O | – |
| – | 105 | 4.34 | – | Nc1ccc(C(=O)O)cc1C(=O)c1ccccc1 | solubility [6]: soluble |
| 1.79 | 30 | 3.81 | 2.4 | Cl.Nc1ccc(C(=O)O)c(I)c1 | – |
| 1.67 | 8 | 3.69 | 2.38 | Cl.Nc1ccc(C(=O)O)c(Br)c1 | pKa (physchem [5]): 3.85 |
| 1.97 | 85 | 4.47 | – | CCCCCCOc1cc(C(=O)O)ccc1N | solubility [6]: soluble; inhibition (Escherichia coli [9]): inactive |
| 1.52 | 13 | 4.35 | 1.66 | Nc1ccc(C(=O)O)cc1F | inhibition (Escherichia coli [9]): Active |
| 1.89 | 110 | 4.24 | 2.85 | Nc1ccc(C(=O)O)cc1Br | pKa (physchem [5]): 4.31 |
| – | – | – | 1.21 | Nc1ccc(C(=O)O)cc1 [AMINOBENZOIC ACID] | pKa (physchem [5]): 4.67 |
| 1.57 | 25 | 3.52 | 1.92 | Nc1ccc(C(=O)O)c(O)c1 [AMINOSALICYLIC ACID] | pKa (physchem [5]): 3.62; inhibition (Escherichia coli [9]): inactive |
| 1 | 3.5 | 5.81 | – | Cl.Nc1ccc(C(=O)O)c(N)c1 | – |
| 1.68 | 190 | 4.52 | – | N#CSc1cc(C(=O)O)ccc1N | – |
